Assay results from patent US11654136B2, “Phosphoinositide 3-kinase inhibitor with a zinc binding moiety” (Curis, Inc., priority 2011, dated 2023).

Assays:
[1] = test system: EGFR, HER2, HER3, and MET; experiment: Western blot of receptor tyrosine kinases in H1975 and BT-474 cells; assay type: cell-based; details: H1975 NSCLC cells and BT-474 breast cancer cells; 16 h
Method: (§1) Cell extracts were prepared in the presence of SDS and 2-mercaptoethanol and resolved in polyacrylamide gels. Proteins were transferred to nitrocellulose filter and blotting was done using standard procedures with blocking solutions (Li-Cor Bioscience) containing the indicated primary antibody. Primary antibodies against p-EGFR, EGFR, p-HER2, HER2, p-HER3, HER3, p-MET, MET, p-bRaf, p-cRaf, pMEK, MEK, p-ERK, ERK and tubulin were purchased from Cell Signaling Technology. Secondary antibody conjugated with IRdye 680, 800CW were used and the signal was detected with Li-Cor Odyssey Imager.

[2] = Pharmacokinetics in SCID mice bearing Daudi tumors; assay type: in vivo; details: for Area under the Curve / Half-life / Cmax / Tmax: oral gavage; for Area under the Curve / Cmax / Tmax: dose not stated; for Half-life: dose of the table not stated (25, 50 or 100 mg/kg); for Cmax / Tmax: female, mouse
Method: Daudi (non-Hodgkin's lymphoma cell line) cells were implanted into female Scid (severe […] immune-deficient) mice.
At various time points following compound administration, three mice per time point were euthanized with CO2, and blood and tumor tissues were collected. Blood was collected into tubes containing sodium heparin. The plasma was separated via centrifugation. Plasma and tissues were stored at −80° C. for later analysis. A PE Sciex API-3000 LC-MS/MS system (Applied Biosystems, Inc., Foster City, Calif.) was used to analyze compound concentrations in plasma.

[3] = test system: HDAC activity (Ac-H3, Ac-Tub, Ac-p53, p53, p21) in H460 cells; experiment: Western blot / in-cell-western of HDAC markers in H460 cells; assay type: cell-based
Method: as §1
(§2) Immunocytochemistry was performed on cells grown in monolayer culture that were treated as indicated in the figure legends and then fixed in 4% (w/v) paraformaldehyde. After washing in 1×PBS, immunostaining was performed in Li-Cor blocking solution containing the indicated primary antibodies and IRDye 680- or 800CW-conjugated secondary antibodies. For in-cell-western, a Li-Cor Odyssey infrared imager was used for detection and quantification of results.
(§3) Cells were treated with DMSO alone (vehicle control) or containing test compounds for 1 h before Western blot or in-cell-western was performed.

[4] = test system: PI3K pathway signaling (AKT, 4EBP-1, p70S6) in H460 cells; experiment: Western blot / in-cell-western of PI3K pathway signaling in H460 cells; assay type: cell-based
Method: as §1, §2, §3

Raf, MEK, and ERK = experiment: Western blot of RAF-MEK-ERK pathway in H460, A375, BT-474 and H1975 cells; assay type: cell-based; details: 100 nM, 16 hours
Method: as §1
One major limitation of PI3K inhibitors in the treatment of cancers is the activation of the RAF-MEK-ERK pathway. HDAC inhibitors are able to inhibit kinase levels in this signaling pathway in cancer cells via epigenetic modification.

MM1S subcutaneous tumor = experiment: MM1S xenograft model; assay type: in vivo, SCID/Beige mice; details: oral gavage five times per week
Method: Female SCID/Beige mice at age 4 weeks were housed in ventilated micro-isolator cages (INNOCAGE®IVC, Innovive Inc., San Diego, Calif.) in a controlled climate, fed with sterile high-fat diet (Problab-RMH 2000) ad libitum and provided with sterilized water. All housing and supplies for SCID/Beige mice were sterilized by autoclaving before use. Mice were inspected daily including weekends/holidays by trained animal facility personnel and investigators. All animal procedures were performed under sterile conditions within a biosafety cabinet (for injections) or laminar flow hood (for animal husbandry and non-invasive procedures).
MM1S human […] cells (Gold-Leikin R E, et al., J Lab Clin Invest. 1980; 113:335-345) were originally obtained from peripheral blood of a multiple myeloma patient. Cryopreserved cells were thawed in a 37° C. water bath and cultured in RPMI medium plus 10% Fetal Bovine Serum (FBS) in a tissue culture incubator at 5% CO2. Cells were sent to outside vendors for contaminants and rodent pathogen screening intended to rule out contamination by mycoplasma (by PCR) and/or virus (by MAP test, Mouse Antibody Production). […] The implanted mice were monitored for general health and tumor development daily.
Tumors were detectable about two weeks following implantation. Tumor size was measured with a caliper. […]
During each animal study, tumors were measured with calipers, tumor size determined using the above mentioned formula, and tumor size changes in percentage calculated. Mouse body weights were measured with a scale twice per week. […] In addition to the determination of tumor size changes, the last tumor measurement was used to generate the tumor weight change ratio (T/C value), a standard metric developed by the National Cancer Institute (NCI) for xenograft tumor evaluation T/C values were calculated using the following formula: % T/C=100×ΔT/ΔC if ΔT>0. […]
The treatment period was 15 days. Tumor sizes and body weights were measured again on the last day of the study.

[5] = Pharmacokinetic study in dogs; assay type: in vivo; details: beagle dogs
From the text: FIG. 4 is a graph of plasma concentration versus time for both oral and iv dosing.

[6] = Plasma, Daudi tumor-bearing Scid mice

## COc1ccc(-c2nc(N3CCOCC3)c3sc(CN(C)c4ncc(C(=O)NO)cn4)cc3n2)cn1 [Compound 1, N-hydroxy-2-(((2-(6-methoxypyridin-3-yl)-4-morpholinothieno[3,2-d]pyrimidin-6-yl)methyl)(methyl)amino)pyrimidine-5-carboxamide]
[1]
  Levels of phosphorylated and total EGFR, HER2, HER3, and MET: reduce the levels of phosphorylated and total receptor tyrosine kinases EGFR, HER2, HER3, and MET
[2]; [6]
  Area under the Curve: 1899.26 ng/mL * hr
  Half-life: 7.73 h
  Cmax: 2290 ng/mL
  Tmax: 0.24 h
[2]; Tumor
  Area under the Curve: 3973.56 ng/mL * hr
  Half-life: 12.62 h
  Cmax: 1040 ng/mL
  Tmax: 0.1 h
[2]; oral 25, 50 and 100 mg/kg
  Distribution between plasma and tumor tissue: preferentially accumulates in tumor tissue in a dose dependent manner
[2]; oral 25, 50 and 100 mg/kg, Daudi tumor-bearing Scid mice
  Plasma exposure versus dose: dose-dependent exposure
[3]
  Levels of acetylated-tubulin, histone 3, p53 and p21 versus dose: increases levels of acetylated-tubulin (FIG. 7B), acetylated histone 3 (FIG. 7C), acetylated p53 (FIG. 7D), and acetylated p21 (FIG. 7E) in a dose-dependent manner
  Total p53 and p21 content: upregulates total p53 and p21 content
[3]; 1 μmon, 1 h
  Levels of acetylated histone 3, tubulin and p53: increases the levels of acetylated histone 3 (Ac-H3), tubulin (Ac-Tub), and p53 (Ac-p53)
[4]
  Phosphorylation of Akt: persistently and potently inhibits phosphorylation of Akt in a dose-dependent manner
[4]; 1 μmon
  Activation of AKT, 4EBP-1 and p70S6: inhibits the activation of AKT and the downstream signaling proteins 4EBP-1 and p70S6
Raf, MEK, and ERK
  Activation of Raf, MEK, and ERK: suppressed activation of Raf, MEK, and ERK
MM1S subcutaneous tumor; day 14, p<0.0001
  T/C value: 27.37%
MM1S subcutaneous tumor; single agent, 15 days
  Body weight and side effects: No body weight loss or other side effects were observed
  Tumor growth: inhibited tumor growth
[5]; IV 5 mg/kg, plasma
  Area under the Curve: 2977.47 ng/mL * hr
  Half-life: 1.85 h
[5]; PO Capsule 5 mg/kg, plasma
  Area under the Curve: 450.4 ng/mL * hr
  Half-life: 4.88 h
[5]; dog, plasma, PO Capsule 5 mg/kg
  bioavailability: 15.1%
[5]; dog, IV 5 mg/kg, plasma
  Cmax: 6160 ng/mL
[5]; dog, PO Capsule 5 mg/kg, plasma
  Cmax: 312 ng/mL
[5]; oral 5 mg/kg in enteric capsules
  Plasma levels after oral dosing: Significant plasma levels
